# Measurements as given in ChEMBL document CHEMBL4373717, “Coumarin-containing hybrids and their anticancer activities” (Eur J Med Chem, 2019).
# What was measured:
# WiDr = test: Growth inhibition of human WiDr cells; format: functional
# OVCAR-8 = test: Growth inhibition of human OVCAR8 cells; format: functional
# T-24 = test: Growth inhibition of human T24 cells; format: functional
# [1] = Growth inhibition of human KATO III cells; format: functional
# BXPC-3 = test: Growth inhibition of human BxPC3 cells; format: functional
# SN12C = test: Growth inhibition of human SN12C cells; format: functional
# HepG2 = test: Growth inhibition of human HepG2 cells; format: functional
# SNU1 = test: Growth inhibition of human SNU1 cells; format: functional
# AGS = test: Growth inhibition of human AGS cells; format: functional
# SK-OV-3 = test: Growth inhibition of human SKOV3 cells; format: functional
# PANC-1 = test: Growth inhibition of human PANC1 cells; format: functional
# K562 [2] = test: Growth inhibition of human K562 cells; format: functional
# MCF7 [3] = test: Growth inhibition of human MCF7 cells; format: functional
# MDA-MB-231 [4] = test: Potency index, ratio of cisplatin IC50 to compound IC50 for cytotoxicity against human MDA-MB-231 cells in normoxic condition; format: functional
# MDA-MB-231 [5] = test: Cytotoxicity against human MDA-MB-231 cells assessed as reduction in cell viability after 24 hrs by MTT assay; format: functional, cell-based
# MDA-MB-231 [6] = test: Potency index, ratio of doxorubicin IC50 to compound IC50 for cytotoxicity against human MDA-MB-231 cells in normoxic condition; format: functional
# MDA-MB-231 [7] = test: Potency index, ratio of doxorubicin IC50 to compound IC50 for cytotoxicity against human MDA-MB-231 cells in hypoxic condition; format: functional
# MDA-MB-231 [8] = test: Potency index, ratio of cisplatin IC50 to compound IC50 for cytotoxicity against human MDA-MB-231 cells in hypoxic condition; format: functional
# DLD-1 = test: Cytotoxicity against human DLD1 cells assessed as reduction in cell viability; format: functional, cell-based
# [9] = molecular target: Vascular endothelial growth factor receptor 2 (Homo sapiens, UniProt P35968); test: Inhibition of VEGFR2 (unknown origin)
# MCF7 [10] = test: Cytotoxicity against human MCF7 cells assessed as reduction in cell viability; format: functional, cell-based
# NCI-H460 [11] = test: Growth inhibition of human H460 cells; format: functional
# NCI-H1650 = test: Growth inhibition of human NCI-H1650 cells; format: functional
# A549 [12] = test: Growth inhibition of human A549 cells; format: functional
# SNB-75 = test: Anticancer activity against human SNB75 cells; format: functional
# OVCAR-4 = test: Anticancer activity against human OVCAR4 cells; format: functional
# NCI-H460 [13] = test: Growth inhibition of human NCI-H460 cells; format: functional
# SF-268 [14] = test: Growth inhibition of human SF268 cells; format: functional
# MCF7 [15] = test: Potency index, ratio of doxorubicin GI50 to compound GI50 for growth inhibition of human MCF7 cells; format: functional
# SF-268 [16] = test: Potency index, ratio of doxorubicin GI50 to compound GI50 for growth inhibition of human SF268 cells; format: functional
# NCI-H460 [17] = test: Potency index, ratio of doxorubicin GI50 to compound GI50 for growth inhibition of human NCI-H460 cells; format: functional
# K562 [18] = test: Potency index, ratio of doxorubicin IC50 to compound IC50 for anticancer activity against human K562 cells; format: functional
# A549 [19] = test: Anticancer activity against human A549 cells by MTT assay; format: functional, cell-based
# HeLa [20] = test: Anticancer activity against human HeLa cells by MTT assay; format: functional, cell-based
# MDA-MB-231 [21] = test: Potency index, ratio of doxorubicin IC50 to compound IC50 for anticancer activity against human MDA-MB-231 cells; format: functional
# K562 [22] = test: Anticancer activity against human K562 cells by MTT assay; format: functional, cell-based
# MDA-MB-231 [23] = test: Anticancer activity against human MDA-MB-231 cells by MTT assay; format: functional, cell-based
# HeLa [24] = test: Potency index, ratio of doxorubicin IC50 to compound IC50 for anticancer activity against human HeLa cells; format: functional
# A549 [25] = test: Potency index, ratio of doxorubicin IC50 to compound IC50 for anticancer activity against human A549 cells; format: functional
# HeLa [26] = test: Cytotoxicity against human HeLa cells assessed as reduction in cell viability after 24 hrs by MTT assay; format: functional, cell-based
# MCF7 [27] = test: Cytotoxicity against human MCF7 cells assessed as reduction in cell viability after 24 hrs by MTT assay; format: functional, cell-based; settings: MCF7, 24 h
# L02 = test: Cytotoxicity against human L02 cells assessed as reduction in cell viability after 24 hrs by MTT assay; format: cell-based; settings: L02, 24 h
# HEK-293T = test: Cytotoxicity against HEK293T cells assessed as reduction in cell viability after 24 hrs by MTT assay; format: cell-based; settings: Homo sapiens
# A549 [28] = test: Cytotoxicity against human A549 cells assessed as reduction in cell viability after 24 hrs by MTT assay; format: functional, cell-based; settings: A549, 24 h
# MCF7 [29] = test: Potency index, ratio of cisplatin IC50 to compound IC50 for antiproliferative activity against human MCF7 cells; format: functional
# K562 [30] = test: Antiproliferative activity against human K562 cells after 48 hrs by MTT assay; format: functional, cell-based; settings: K562, 48 h
# K562 [31] = test: Potency index, ratio of cisplatin IC50 to compound IC50 for antiproliferative activity against human K562 cells; format: functional
# A549 [32] = test: Antiproliferative activity against human A549 cells after 48 hrs by MTT assay; format: functional, cell-based; settings: A549, 48 h
# A549 [33] = test: Potency index, ratio of cisplatin IC50 to compound IC50 for antiproliferative activity against human A549 cells; format: functional
# MCF7 [34] = test: Antiproliferative activity against human MCF7 cells after 48 hrs by MTT assay; format: functional, cell-based; settings: MCF7, 48 h
# MDA-MB-231 [35] = test: Cytotoxicity against human MDA-MB-231 cells assessed as reduction in cell viability; format: functional, cell-based
# Ishikawa = test: Cytotoxicity against human Ishikawa cells assessed as reduction in cell viability; format: functional, cell-based
# Vascular endothelial growth factor receptor 2, sequence (P35968 whole entry): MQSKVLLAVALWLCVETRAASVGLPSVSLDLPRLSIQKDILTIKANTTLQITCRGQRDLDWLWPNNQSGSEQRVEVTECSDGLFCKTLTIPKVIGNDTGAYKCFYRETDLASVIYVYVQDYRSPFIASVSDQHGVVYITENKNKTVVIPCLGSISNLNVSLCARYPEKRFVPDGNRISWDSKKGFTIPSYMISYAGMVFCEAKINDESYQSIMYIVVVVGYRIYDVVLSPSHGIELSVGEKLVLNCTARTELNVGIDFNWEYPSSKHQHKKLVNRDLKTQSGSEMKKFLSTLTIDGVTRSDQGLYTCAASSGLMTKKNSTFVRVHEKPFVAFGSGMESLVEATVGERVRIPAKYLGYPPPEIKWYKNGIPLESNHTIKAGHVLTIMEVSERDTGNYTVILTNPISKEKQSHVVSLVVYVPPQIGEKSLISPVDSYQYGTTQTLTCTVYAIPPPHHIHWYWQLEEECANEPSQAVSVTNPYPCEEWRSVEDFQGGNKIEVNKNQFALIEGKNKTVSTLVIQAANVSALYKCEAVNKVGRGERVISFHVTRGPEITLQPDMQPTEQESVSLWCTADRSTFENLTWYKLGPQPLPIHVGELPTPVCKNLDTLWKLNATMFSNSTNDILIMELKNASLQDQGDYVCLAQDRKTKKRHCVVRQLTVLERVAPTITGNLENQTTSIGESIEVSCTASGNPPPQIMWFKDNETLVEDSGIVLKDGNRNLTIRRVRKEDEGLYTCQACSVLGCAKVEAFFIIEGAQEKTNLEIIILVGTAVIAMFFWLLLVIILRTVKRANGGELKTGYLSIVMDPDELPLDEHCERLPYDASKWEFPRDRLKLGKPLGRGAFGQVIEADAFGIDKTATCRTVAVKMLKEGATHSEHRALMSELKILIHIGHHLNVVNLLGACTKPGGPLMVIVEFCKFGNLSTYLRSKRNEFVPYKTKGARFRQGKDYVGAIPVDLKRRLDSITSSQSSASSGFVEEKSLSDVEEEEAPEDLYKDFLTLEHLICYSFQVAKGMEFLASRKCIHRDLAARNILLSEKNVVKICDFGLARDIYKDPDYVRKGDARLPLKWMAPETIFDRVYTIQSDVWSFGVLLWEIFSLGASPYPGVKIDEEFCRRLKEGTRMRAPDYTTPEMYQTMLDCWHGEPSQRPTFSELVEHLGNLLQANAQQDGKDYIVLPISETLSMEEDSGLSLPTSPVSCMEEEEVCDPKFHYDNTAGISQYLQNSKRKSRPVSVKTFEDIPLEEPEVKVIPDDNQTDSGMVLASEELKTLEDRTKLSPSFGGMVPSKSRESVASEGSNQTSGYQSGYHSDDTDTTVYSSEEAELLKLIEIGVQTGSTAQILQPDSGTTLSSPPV
structure (smiles),measurement,setting,value
CCN(CC)c1ccc2cc(-c3nc4ccccc4n3C)c(=O)oc2c1,GI50,WiDr,70 to 410 nM
same,GI50,OVCAR-8,70 to 410 nM
same,GI50,T-24,70 to 410 nM
same,GI50,[1],70 to 410 nM
same,GI50,BXPC-3,70 to 410 nM
same,GI50,SN12C,70 to 410 nM
same,GI50,HepG2,70 to 410 nM
same,GI50,SNU1,70 to 410 nM
same,GI50,AGS,70 to 410 nM
same,GI50,SK-OV-3,70 to 410 nM
same,GI50,PANC-1,70 to 410 nM
same,GI50,K562 [2],70 to 410 nM
same,GI50,MCF7 [3],70 to 410 nM
COc1ccc(NC(=O)c2ccc(-n3cc(COc4cc(=O)oc5ccccc45)nn3)cc2)cc1OC,Ratio IC50,MDA-MB-231 [4],20 - 156
same,IC50,MDA-MB-231 [5]; mda-mb-231,0.03 to 91.6 µM
same,Ratio IC50,MDA-MB-231 [6],20 - 156
same,Ratio IC50,MDA-MB-231 [7],20 - 156
same,Ratio IC50,MDA-MB-231 [8],20 - 156
Cc1ccc(/N=N/c2sc(N3N=C(c4c(O)c5ccccc5oc4=O)CC3c3ccc(N(C)C)cc3)nc2-c2ccccc2)cc1 (stereo unspecified),IC50,DLD-1,114 to 129 µM
same,IC50,[9],34 to 582 nM
same,IC50,MCF7 [10],5.41 to 6.56 µM
COc1ccc(C(=O)CC(c2c(O)c3ccccc3oc2=O)c2c(O)c3ccccc3oc2=O)c(O)c1,GI50,NCI-H460 [11],35.7 µM
same,GI50,NCI-H1650,50.1 µM
same,GI50,A549 [12],33.3 µM
Nc1ccc2c(-c3nc4ccc(Br)c(O)c4s3)cc(=O)oc2c1,GI50,SNB-75,240 nM
same,GI50,OVCAR-4,330 nM
O=c1oc2ccccc2cc1-c1nc2ccccc2n1C(=S)Nc1ccccc1,GI50,NCI-H460 [13],50 to 80 nM
same,GI50,SF-268 [14],50 to 80 nM
same,RatioGI50,MCF7 [15],1.5 - 2
same,RatioGI50,SF-268 [16],1.5 - 2
same,RatioGI50,NCI-H460 [17],1.5 - 2
same,GI50,MCF7 [3],50 to 80 nM
COc1ccc(-n2nc(C)n(-n3c(-c4cc5ccccc5oc4=O)cs/c3=N\c3ccc(Cl)cc3)c2=O)cc1,Ratio IC50,K562 [18],1.9 - 3.3
same,IC50,A549 [19],0.16 to 0.31 µg/mL
same,IC50,HeLa [20],0.16 to 0.31 µg/mL
same,Ratio IC50,MDA-MB-231 [21],1.9 - 3.3
same,IC50,K562 [22],0.16 to 0.31 µg/mL
same,IC50,MDA-MB-231 [23],0.16 to 0.31 µg/mL
same,Ratio IC50,HeLa [24],1.9 - 3.3
same,Ratio IC50,A549 [25],1.9 - 3.3
CC(C)=CC[C@@H](OCc1ccc(C(=O)/N=C/c2c(Cl)c3ccccc3oc2=O)cc1)C1=CC(=O)c2c(O)ccc(O)c2C1=O,IC50,"MDA-MB-231 [5]; Homo sapiens, MDA-MB-231, 24 h",3.25 to 10.6 µM
same,IC50,HeLa [26],3.25 to 10.6 µM
same,IC50,MCF7 [27],3.25 to 10.6 µM
same,IC50,L02,3.25 to 10.6 µM
same,IC50,HEK-293T,3.25 to 10.6 µM
same,IC50,A549 [28],3.25 to 10.6 µM
CCN(CC)CCOc1ccc(-c2c(-c3ccc(NC(=O)CCCCCCCCC(=O)Nc4ccc(-c5c(-c6ccc(OCCN(CC)CC)cc6)c6ccc(OCCN(CC)CC)cc6oc5=O)cc4)cc3)c(=O)oc3cc(OCCN(CC)CC)ccc23)cc1,Ratio IC50,MCF7 [29],2.4 - 8.3
same,IC50,K562 [30],1000 to 3720 nM
same,Ratio IC50,K562 [31],2.4 - 8.3
same,IC50,A549 [32],1000 to 3720 nM
same,Ratio IC50,A549 [33],2.4 - 8.3
same,IC50,MCF7 [34],1000 to 3720 nM
CN(C)c1ccc(C2CC(c3cc4ccccc4oc3=O)=NN2c2nc(-c3ccccc3)c(/N=N/c3ccc(Cl)cc3)s2)cc1 (stereo unspecified),IC50,DLD-1,114 to 129 µM
same,IC50,[9],34 to 582 nM
same,IC50,MCF7 [10],5.41 to 6.56 µM
CCOC(=O)c1cc2cc(-c3nc4cc(C)ccn4c3NC(C)(C)C)cc(C(C)C)c2oc1=O,IC50,MDA-MB-231 [35],14.1 to 50 µM
same,IC50,Ishikawa,14.1 to 50 µM
same,IC50,MCF7 [10],14.1 to 50 µM
CN(C)c1ccc(C2CC(c3c(O)c4ccccc4oc3=O)=NN2c2nc(-c3ccccc3)c(/N=N/c3ccc(Cl)cc3)s2)cc1 (stereo unspecified),IC50,DLD-1,114 to 129 µM
same,IC50,[9],5410 nM
same,IC50,MCF7 [10],5.41 to 6.56 µM
